In assay [1] the test system is NCI-H358 human non-small cell lung cancer. Description: NCI-H358 CCK-8 proliferation assay. The following applies: NCI-H358 cells, 72 hr. Type of assay: cell-based. In outline:
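KRAS(G12C) lines were used: MIA PaCa-2 with 2 copies, and NCI-H358 and NCI-H23 with 1 copy each. Cells were treated with 3-fold compound dilutions from 20 μM to 1.02 nM, and proliferation was read by CCK-8 absorbance. % inhibition was calculated against DMSO-treated cells after subtracting the cell-free medium blank.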

A further assay has as its target T1, HSP90a protein (Homo sapiens, UniProt P07900).
T1 construct: purchased BPS Bioscience 50298
Description: HSP90α-binding fluorescent polarization (FP) assay, BODIPY-labeled RNK04010 probe. The following applies: FP competition with RNK04010 (BODIPY-labeled), 5 nM, 300 min at 25° C. The gist of the method:
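Binding was scored by fluorescence polarization after adding N-terminal HSP90a to wells holding probe and compound, with compound tested from 20 μM to 5.2 nM. Probe-dependent times at 25° C were 120 min for FITC-geldanamycin and 300 min for RNK04010-BODIPY, both at 5 nM final.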

The source of these data is patent publication US20230391772A1, “METHODS AND COMPOSITIONS FOR TARGETED PROTEIN DEGRADATION” (Ranok Therapeutics (Hangzhou) Co. Ltd., priority 2020, published 2023).

The EC50 is the concentration that produces a half-maximal response. The low end stands for greater potency, the high end for weaker potency. A word on the IC50: it is the concentration needed to halve the response being measured. In turn, `C=CC(=O)N1CCN(c2nc(NCCC(=O)NCC3CCN(C(=O)C4CCN(Cc5ccc(-n6c(O)nnc6-c6cc(C(C)C)c(O)cc6O)cc5)CC4)CC3)nc3c2CCN(c2cccc4ccccc24)C3)C[C@H]1CC#N` [Compound 101, (R)-3-((4-(4-acryloyl-3-(cyanomethyl)piperazin-1-yl)-7-(naphthalen-1-yl)-5,6,7,8-tetrahydropyrido[3,4-d]pyrimidin-2-yl)amino)-N-((1-(1-(4-(3-(2,4-dihydroxy-5-isopropylphenyl)-5-hydroxy-4H-1,2,4-triazol-4-yl)benzyl)piperidine-4-carbonyl)piperidin-4-yl)methyl)propanamide, trifluoroacetic acid] gave an EC50 in assay [1] of over 1 µM. At HSP90a protein, this compound registered an IC50 of under 0.1 µM.

In turn, `C=CC(=O)N1CCN(c2nc(NCCC(=O)NCC3CCN(C(=O)C4CCN(Cc5ccc(-n6c(O)nnc6-c6cc(C(C)C)c(O)cc6O)cc5)CC4)CC3)nc3c2CCN(c2cccc4cccc(Cl)c24)C3)C[C@H]1CC#N` [Compound 102, (R)-3-((4-(4-acryloyl-3-(cyanomethyl)piperazin-1-yl)-7-(8-chloronaphthalen-1-yl)-5,6,7,8-tetrahydropyrido[3,4-d]pyrimidin-2-yl)amino)-N-((1-(1-(4-(3-(2,4-dihydroxy-5-isopropylphenyl)-5-hydroxy-4H-1,2,4-triazol-4-yl)benzyl)piperidine-4-carbonyl)piperidin-4-yl)methyl)propanamide, trifluoroacetic acid] came in with an EC50 in assay [1] of over 1 µM. For the same compound, the IC50 at HSP90a protein is under 0.1 µM.

Compound `C=CC(=O)N1CCN(c2nc(NCCC(=O)NCC3CCN(C(=O)C4CCN(Cc5ccc(-n6c(O)nnc6-c6cc(CC)c(O)cc6O)cc5)CC4)CC3)nc3c2CCN(c2cccc4ccccc24)C3)C[C@H]1CC#N` [Compound 103, (R)-3-((4-(4-acryloyl-3-(cyanomethyl)piperazin-1-yl)-7-(naphthalen-1-yl)-5,6,7,8-tetrahydropyrido[3,4-d]pyrimidin-2-yl)amino)-N-((1-(1-(4-(3-(5-ethyl-2,4-dihydroxyphenyl)-5-hydroxy-4H-1,2,4-triazol-4-yl)benzyl)piperidine-4-carbonyl)piperidin-4-yl)methyl)propanamide, trifluoroacetic acid] returned an EC50 in assay [1] of over 1 µM. Also, the IC50 at HSP90a protein is under 0.1 µM.

`C=CC(=O)N1CCN(c2nc(NCCC(=O)NCC3CCN(C(=O)C4CCN(Cc5ccc(-n6c(O)nnc6-c6cc(CC)c(O)cc6O)cc5)CC4)CC3)nc3c2CCN(c2cccc4cccc(Cl)c24)C3)C[C@H]1CC#N` [Compound 104, (R)-3-((4-(4-acryloyl-3-(cyanomethyl)piperazin-1-yl)-7-(8-chloronaphthalen-1-yl)-5,6,7,8-tetrahydropyrido[3,4-d]pyrimidin-2-yl)amino)-N-((1-(1-(4-(3-(5-ethyl-2,4-dihydroxyphenyl)-5-hydroxy-4H-1,2,4-triazol-4-yl)benzyl)piperidine-4-carbonyl)piperidin-4-yl)methyl)propanamide, trifluoroacetic acid]: the EC50 in assay [1] is over 1 µM. Also, at HSP90a protein, the concentration for half-maximal inhibition (IC50) was under 0.1 µM.

`C=CC(=O)N1CCN(c2nc(NCCC(=O)N3CCN(Cc4ccc5c(c4F)CN(C(=O)c4ccc(O)cc4O)C5)CC3)nc3c2CCN(c2cc(O)cc4ccccc24)C3)CC1` [Compound 105, 1-(4-(2-((3-(4-((2-(2,4-dihydroxybenzoyl)-4-fluoroisoindolin-5-yl)methyl)piperazin-1-yl)-3-oxopropyl)amino)-7-(3-hydroxynaphthalen-1-yl)-5,6,7,8-tetrahydropyrido[3,4-d]pyrimidin-4-yl)piperazin-1-yl)prop-2-en-1-one, trifluoroacetic acid] registered an EC50 in assay [1] of over 1 µM. The same compound displayed an IC50 at HSP90a protein of over 1 µM.

As for `C=CC(=O)N1CCN(c2nc(NCCC(=O)N3CCN(Cc4ccc5c(c4F)CN(C(=O)c4cc(C)c(O)cc4O)C5)CC3)nc3c2CCN(c2cc(O)cc4ccccc24)C3)CC1` [Compound 107, 1-(4-(2-((3-(4-((2-(2,4-dihydroxy-5-methylbenzoyl)-4-fluoroisoindolin-5-yl)methyl)piperazin-1-yl)-3-oxopropyl)amino)-7-(3-hydroxynaphthalen-1-yl)-5,6,7,8-tetrahydropyrido[3,4-d]pyrimidin-4-yl)piperazin-1-yl)prop-2-en-1-one, trifluoroacetic acid], in assay [1], the EC50 was over 1 µM. Further, the IC50 at HSP90a protein is over 1 µM.

In turn, `C=CC(=O)N1CCN(c2nc(NCCC(=O)NCc3ccc(-n4c(O)nnc4-c4ccc(O)cc4O)cc3)nc3c2CCN(c2cccc4cccc(Cl)c24)C3)C[C@@H]1CC#N` [Compound 111, (S)-3-((4-(4-acryloyl-3-(cyanomethyl)piperazin-1-yl)-7-(8-chloronaphthalen-1-yl)-5,6,7,8-tetrahydropyrido[3,4-d]pyrimidin-2-yl)amino)-N-(4-(3-(2,4-dihydroxyphenyl)-5-hydroxy-4H-1,2,4-triazol-4-yl)benzyl)propanamide, trifluoroacetic acid] gave an EC50 in assay [1] of over 1 µM. On HSP90a protein, this compound registered an IC50 of over 1 µM.

In the case of `CCc1cc(-c2nnc(C(=O)NCC(F)(F)F)n2-c2ccc(CN(C)Cc3ccc(CC4CCN(C(=O)CCNc5nc6c(c(N7CCN(C(C)=O)CC7)n5)CCN(c5cc(O)cc7ccccc57)C6)CC4)cc3)cc2)c(O)cc1O` [Compound 113, 4-(4-(((4-((1-(3-((4-(4-acetylpiperazin-1-yl)-7-(3-hydroxynaphthalen-1-yl)-5,6,7,8-tetrahydropyrido[3,4-d]pyrimidin-2-yl)amino)propanoyl)piperidin-4-yl)methyl)benzyl)(methyl)amino)methyl)phenyl)-5-(5-ethyl-2,4-dihydroxyphenyl)-N-(2,2,2-trifluoroethyl)-4H-1,2,4-triazole-3-carboxamide, trifluoroacetic acid], the half-maximal effective concentration (EC50) in assay [1] was 0.1 to 1 µM. This compound also came in with an IC50 at HSP90a protein of 0.1 to 1 µM.

With `CC(=O)N1CCN(c2nc(NCCC(=O)N3CCC(Cc4ccc(CN(C)Cc5ccc(-n6c(C(=O)NCC(F)(F)F)nnc6-c6cc(C)c(O)cc6O)cc5)cc4)CC3)nc3c2CCN(c2cc(O)cc4ccccc24)C3)CC1` [Compound 114, 4-(4-(((4-((1-(3-((4-(4-acetylpiperazin-1-yl)-7-(3-hydroxynaphthalen-1-yl)-5,6,7,8-tetrahydropyrido[3,4-d]pyrimidin-2-yl)amino)propanoyl)piperidin-4-yl)methyl)benzyl)(methyl)amino)methyl)phenyl)-5-(2,4-dihydroxy-5-methylphenyl)-N-(2,2,2-trifluoroethyl)-4H-1,2,4-triazole-3-carboxamide, trifluoroacetic acid], the EC50 in assay [1] was over 1 µM. Also, the IC50 at HSP90a protein is over 1 µM.

The compound `CCC(=O)N1CCN(c2nc(NCCC(=O)N3CCC(CN4CCN(Cc5ccc(-n6c(C(=O)NC(CC)CC)nnc6-c6cc(CC)c(O)cc6O)cc5)CC4)CC3)nc3c2CCN(c2cc(O)cc4ccccc24)C3)CC1` [Compound 117, 5-(5-ethyl-2,4-dihydroxyphenyl)-4-(4-((4-((1-(3-((7-(3-hydroxynaphthalen-1-yl)-4-(4-propionylpiperazin-1-yl)-5,6,7,8-tetrahydropyrido[3,4-d]pyrimidin-2-yl)amino)propanoyl)piperidin-4-yl)methyl)piperazin-1-yl)methyl)phenyl)-N-(pentan-3-yl)-4H-1,2,4-triazole-3-carboxamide, trifluoroacetic acid] came in with an EC50 in assay [1] of 0.1 to 1 µM. At HSP90a protein, this compound showed a half-inhibitory concentration (IC50) of 0.1 to 1 µM.

`CC(=O)N1CCN(c2nc(NCCC(=O)N3CCC(Cc4ccc(CN(C)Cc5ccc(-n6c(C(=O)NCC(F)(F)F)nnc6-c6cc(C)c(O)cc6O)cc5)cc4)CC3)nc3c2CCN(c2cccc4ccccc24)C3)C[C@H]1CC#N` [Compound 122, (R)-4-(4-(((4-((1-(3-((4-(4-acetyl-3-(cyanomethyl)piperazin-1-yl)-7-(naphthalen-1-yl)-5,6,7,8-tetrahydropyrido[3,4-d]pyrimidin-2-yl)amino)propanoyl)piperidin-4-yl)methyl)benzyl)(methyl)amino)methyl)phenyl)-5-(2,4-dihydroxy-5-methylphenyl)-N-(2,2,2-trifluoroethyl)-4H-1,2,4-triazole-3-carboxamide, trifluoroacetic acid]: the EC50 in assay [1] is over 1 µM. Further, on HSP90a protein, the IC50 was over 1 µM.

Consider `CC(=O)N1CCN(c2nc(NCCC(=O)N3CCN(Cc4ccc(CN(C)Cc5ccc(-n6c(C(=O)NCC(F)(F)F)nnc6-c6cc(C(C)C)c(O)cc6O)cc5)cc4)CC3)nc3c2CCN(c2cccc4ccccc24)C3)C[C@H]1CC#N` [Compound 124, (R)-4-(4-(((4-((4-(3-((4-(4-acetyl-3-(cyanomethyl)piperazin-1-yl)-7-(naphthalen-1-yl)-5,6,7,8-tetrahydropyrido[3,4-d]pyrimidin-2-yl)amino)propanoyl)piperazin-1-yl)methyl)benzyl)(methyl)amino)methyl)phenyl)-5-(2,4-dihydroxy-5-isopropylphenyl)-N-(2,2,2-trifluoroethyl)-4H-1,2,4-triazole-3-carboxamide, trifluoroacetic acid], for which, in assay [1], the EC50 is 0.1 to 1 µM. The IC50 on HSP90a protein fell in the range of 0.1 to 1 µM.

In turn, `C=CC(=O)N1CCN(c2nc(NCCC(=O)NCc3ccc(CN4CCC(Cc5ccc(-n6c(C(=O)NCC(F)(F)F)nnc6-c6cc(CC)c(O)cc6O)cc5)CC4)cc3)nc3c2CCN(c2cc(O)cc4ccccc24)C3)CC1` [Compound 125, 4-(4-((1-(4-((3-((4-(4-acryloylpiperazin-1-yl)-7-(3-hydroxynaphthalen-1-yl)-5,6,7,8-tetrahydropyrido[3,4-d]pyrimidin-2-yl)amino)propanamido)methyl)benzyl)piperidin-4-yl)methyl)phenyl)-5-(5-ethyl-2,4-dihydroxyphenyl)-N-(2,2,2-trifluoroethyl)-4H-1,2,4-triazole-3-carboxamide, trifluoroacetic acid] showed an EC50 in assay [1] of 0.1 to 1 µM. This compound showed an IC50 at HSP90a protein of 0.1 to 1 µM.
